System: porcine trachea CFTR−/−
Test: μOCT imaging of airway epithelial function in porcine trachea, CFTR-/- animals
Settings: sequential ivacaftor 10 μM, forskolin 100 nM, acetylcholine 100 μM in bath, 37° C. (FIG. 7G)
Description: FIGS. 7A-7H show the effects of CFTR activators on airway epithelial function in intact porcine trachea by μOCT. FIGS. 7A-7B show representative μOCT images for a CFTR−/− (FIG. 7A) and CFTR+/+ (FIG. 7B) animal. FIGS. 7C-7F, respectively, show ASL depth (FIG. 7C), PCL depth (FIG. 7D), CBF (FIG. 7E) and MCT (FIG. 7F) measurements derived from μOCT images from CFTR−/− and CFTR+/+ animals. FIGS. 7G and 7H show the response of epithelial functional parameters, namely ASL depth and MCT in CFTR−/− (FIG. 7G) and CFTR+/+(FIG. 7H) animals in response to sequential pharmacologic intervention by ivacaftor (10 μM), forskolin (100 nM) and acetylcholine (100 μM).
To further investigate the role of CFTR activators in modulating airway epithelial cell function, CFTR activators were studied in combination with porcine trachea. In this example, porcine trachea from animals having a mutated CFTR (CFTR (−/−) and from animals having a WT-CFTR (CFTR+/+) were evaluated for ASL depth, PCL depth, CBF and MCT. The results are shown in FIGS. 7A-7H.
FIGS. 7G and 7H show the response of epithelial functional parameters, namely ASL depth, CBF and MCT in CFTR−/− and CFTR+/+ animals in response to sequential pharmacologic intervention by ivacaftor (10 μM), forskolin (100 nM) and acetylcholine (100 μM); in this experiment, acetylcholine served as a positive control to induce glandular extrusion in CF tissue). In these experiments, agonists were added to the bath solution and all experiments were conducted under physiological conditions (37° C. and 100% humidity). […] In contrast to FIG. 7G, ASL depth, CBF and MCT were all increased in response to ivacaftor treatment in CFTR+/+ animals, consistent with the results described above for human tissue.
Normal piglet tracheas were obtained from Exemplar Genetics (Sioux Center, Iowa). Tissue were dissected from one-day-old piglets and shipped on wet ice in DMEM. A modified protocol based on airway tissue handling and preparation methods developed by Ballard et al. (Am J Physiol Lung Cell Mol Physiol 298: L270-276, 2010) was employed. Tracheas were immersed in 80 mL Ringer bicarbonate solution (KRB) baths at room temperature and slowly warmed to 37° C. After four hours of pretreatment, the tracheas were removed from the KRB. Accessible mucus and liquid were aspirated from the airway lumens and the tracheal ends were cannulated so that the serosal surface was bathed in KRB [29] without contacting the mucosal surface, as previously described (Ballard et al., Am J Physiol Lung Cell Mol Physiol 298: L270-276, 2010; Martens, et al., Am J Physiol Lung Cell Mol Physiol 301: L236-246, 2011). Tracheas were allowed to equilibrate in KRB bubbled with 95% 02 and 5% CO2 at 37° C. and the luminal side exposed to conditioned air at 100% humidity for 2 hours prior to mOCT imaging (Sleigh et al., Comp Biochem Physiol A Comp Physiol 94: 359-364, 1989).
The μOCT system is a spectral-domain OCT implementation with several improvements to standard OCT that yield high resolution in both lateral and axial directions. The general layout and axial resolution characterization have been described (Liu et al., PLOSOne, 8(1), E54473-2013). A super-continuum source (Fianium SC450) provides the high-bandwidth, short coherence length light necessary for high axial resolution ([…]). A typical OCT system includes an interferometer with the reference and sample arms intersecting at a beamsplitter. The beamsplitter is replaced in μOCT with a 45 degree rod mirror, which apodizes the sample beam by introducing a circular obscuration in the center to achieve a balance of good lateral resolution (2 μm) and long depth of focus (0.2 mm). Custom software is employed to control the galvanometer scanning motors while acquiring spectral data from the line camera. […]

C=C[C@@]1(C)CC(=O)[C@]2(O)[C@@]3(C)[C@@H](O)CCC(C)(C)[C@@H]3[C@H](O)[C@H](OC(C)=O)[C@@]2(C)O1 [forskolin]
no response: ASL depth response | CBF response | MCT response

— patent US10300052B2, “Methods for increasing CFTR activity” (THE UAB RESEARCH FOUNDATION, priority 2012, dated 2019)
